From ChEMBL document CHEMBL1123047, “Quantitative evaluation of the beta 2-adrenoceptor affinity of phenoxypropanolamines and phenylethanolamines” (J Med Chem, 1985)

How the values were obtained:
[1] = (§1) Partition coefficient (logP); settings: octanol/water
[2] = target: Beta-2 adrenergic receptor (Bos taurus) (UniProt Q28044)
Description: (§2) Affinity for cow beta-2 adrenergic receptor by measuring displacement (-)-[3H]dihydroalprenolol (DHA)

[3] = target: Beta-2 adrenergic receptor (Bos taurus, UniProt Q28044); settings: read-out: Kd app
Description: as §2

[4] = as §1; type: physicochemical; settings: octanol/water

Beta-2 adrenergic receptor, sequence (Q28044 whole entry): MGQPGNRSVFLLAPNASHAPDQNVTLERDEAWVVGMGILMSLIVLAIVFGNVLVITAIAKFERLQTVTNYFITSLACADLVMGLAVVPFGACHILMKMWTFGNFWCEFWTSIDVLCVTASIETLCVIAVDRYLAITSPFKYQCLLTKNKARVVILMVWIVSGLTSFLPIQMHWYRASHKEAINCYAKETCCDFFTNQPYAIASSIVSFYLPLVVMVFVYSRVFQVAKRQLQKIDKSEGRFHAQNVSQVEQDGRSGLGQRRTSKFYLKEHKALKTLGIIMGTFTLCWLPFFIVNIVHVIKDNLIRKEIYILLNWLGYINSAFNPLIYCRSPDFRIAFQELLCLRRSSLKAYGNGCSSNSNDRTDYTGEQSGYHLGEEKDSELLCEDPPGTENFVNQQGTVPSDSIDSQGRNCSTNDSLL
Beta-2 adrenergic receptor (Bos taurus), sequence (Q28044 whole entry, looked up): as the sequence (Q28044 whole entry) above

| -Log KD [2] | Kd [3] [nM] | logP [4] | SMILES | logP [1] |
| --- | --- | --- | --- | --- |
|  |  |  | Oc1cccc(O)c1 [RESORCINOL] | 0.8 |
| 8.29 | 10.2 |  | Cc1cc(C)cc(OCC(O)CNC(C)C)c1 (centres undefined) |  |
|  |  | 1.28 | NC(=O)c1ccccc1O [SALICYLAMIDE] |  |
| 6.27 | 1070 |  | CC(C)NC[C@H](O)COc1ccc(O)cc1 [PRENALTEROL] |  |
| 6.57 |  |  | CC(C)NCC(O)c1ccc(NS(C)(=O)=O)cc1 (centres undefined) |  |
| 8.29 | 10.2 |  | Cc1ccccc1OCC(O)CNC(C)C (centres undefined) |  |
| 7.57 | 53.7 |  | CC(C)NCC(O)COc1ccccc1 (centres undefined) |  |
|  | 470 |  | CC(C)(C)NCC(O)c1ccc(O)c(C(N)=O)c1 (centres undefined) |  |
| 9.2 | 0.63 |  | CCCc1ccccc1OCC(O)CNC(C)C (centres undefined) |  |
| 5.73 |  |  | CC(C)(C)NCC(O)c1cc(O)cc(O)c1 (centres undefined) |  |
| 8.97 | 2.14 |  | C#CCOc1ccccc1OCC(O)CNC(C)C (centres undefined) |  |
| 7.66 | 43.6 |  | Cc1cccc(OCC(O)CNC(C)C)c1 (centres undefined) [TOLIPROLOL] |  |
|  |  |  | OCc1ccccc1O [SALICYL ALCOHOL] | 0.73 |
| 7.1 | 160 |  | CC(C)NCC(O)c1ccc2ccccc2c1 (centres undefined) [PRONETALOL] |  |
| 6.58 |  |  | CC(C)(C)NCC(O)c1ccc(O)c(CO)c1 (centres undefined) |  |
| 8.05 | 17.8 |  | CCC(C)c1cccc(OCC(O)CNC(C)C)c1 (centres undefined) |  |
|  | 9120 |  | CC(C)NCC(O)c1cc(O)cc(O)c1 (centres undefined) [METAPROTERENOL] |  |
| 5.8 | 3160 |  | CC(C)NCC(O)c1ccc(O)c(CO)c1 (centres undefined) |  |
|  |  |  | Nc1ccccc1O [QUESTIOMYCIN B] | 0.52 |
| 7.96 | 21.9 |  | CC(C)NCC(O)COc1ccccc1C#N (centres undefined) |  |
| 7.6 | 50.1 |  | CC(C)NCC(O)COc1ccccc1CO (centres undefined) |  |
|  |  |  | CCCc1ccccc1 | 3.57 |

| SMILES | -Log KD [2] | Kd [3] [nM] | logP [4] | logP [1] |
| --- | --- | --- | --- | --- |
| CC(C)(C)NCC(O)c1ccc(O)cc1 (centres undefined) | 6.2 | 1260 |  |  |
| CC(C)NCC(O)c1ccc([N+](=O)[O-])cc1 (centres undefined) [NIFENALOL] |  | 1320 |  |  |
| CC(C)(C)NCC(O)c1ccc(O)c(N)c1 (centres undefined) | 5.99 | 2040 |  |  |
| CC(C)NCC(O)c1ccc(O)c(N)c1 (centres undefined) | 5.59 | 5130 |  |  |
| CC(C)(C)NCC(O)c1ccccc1Cl (centres undefined) [TULOBUTEROL] |  | 130 |  |  |
| CC(C)NCC(O)COc1ccccc1C1CC1 (centres undefined) [PROCINOLOL] | 9.41 | 0.39 |  |  |
| CC(C)NCC(O)c1cccc(O)c1 (centres undefined) [METATEROL] | 6.34 | 910 |  |  |
| CNc1cc(C(O)CNC(C)(C)C)ccc1O (centres undefined) |  | 520 |  |  |
| CC(C)(C)NCC(O)c1cc(Cl)c(O)c(Cl)c1 (centres undefined) | 7.41 | 1950 |  |  |
| CC(C)NCC(O)c1cc(Cl)c(N)c(Cl)c1 (centres undefined) | 7.54 | 58 |  |  |
| CC(C)NCC(O)c1ccc(O)cc1 (centres undefined) [DETERENOL] |  | 4270 |  |  |
| CC(C)(C)NCC(O)c1ccc(O)c(O)c1 (centres undefined) [COLTEROL] | 6.55 | 600 |  |  |
